PubChem BioAssay (NCI)
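Dose response: 5 concentrations. Exposure: 48 h. Format: 96-well plates. Endpoint: linear interpolation; highest concentration if not reached. GI50 is the concentration that inhibits growth by half. TGI marks complete inhibition of growth.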

Key:
Assay in all cases: NCI anticancer screen, dose series, 48 h
786-0 renal = test system: 786-0 renal
A549 NSCLC = test system: A549 NSCLC
CAKI-1 renal = test system: CAKI-1 renal
HL-60(TB) leukemia = test system: HL-60(TB) leukemia
HOP-18 NSCLC = test system: HOP-18 NSCLC
HOP-92 NSCLC = test system: HOP-92 NSCLC
M14 melanoma = test system: M14 melanoma
NCI-H460 lung = test system: NCI-H460 lung
SK-MEL-28 melanoma = test system: SK-MEL-28 melanoma
SW-620 colon = test system: SW-620 colon

Compound | TGI (786-0 renal) [µM] | TGI (A549 NSCLC) [µM] | TGI (CAKI-1 renal) [µM] | TGI (HL-60(TB) leukemia) [µM] | TGI (HOP-18 NSCLC) [µM] | TGI (HOP-92 NSCLC) [µM] | TGI (M14 melanoma) [µM] | TGI (NCI-H460 lung) [µM] | TGI (SK-MEL-28 melanoma) [µM] | TGI (SW-620 colon) [µM] | GI50 (786-0 renal) [µM] | GI50 (A549 NSCLC) [µM] | GI50 (CAKI-1 renal) [µM] | GI50 (HL-60(TB) leukemia) [µM] | GI50 (HOP-92 NSCLC) [µM] | GI50 (M14 melanoma) [µM] | GI50 (NCI-H460 lung) [µM] | GI50 (SK-MEL-28 melanoma) [µM] | GI50 (SW-620 colon) [µM]
O=c1c2ccccc2nc(-c2ccccc2)n1NC1OC(CO)C(O)C(O)C1O (configuration not stated) | > 100 | > 100 | > 100 | > 100 | > 100 | > 100 | > 100 | > 100 | > 100 | > 100 |  |  |  |  |  |  |  |  | 
COc1cccc(-n2ncc3c(N/N=C/c4ccncc4)ncnc32)c1 | > 25 | > 25 | > 25 | > 25 |  | > 25 | > 25 | > 25 | > 25 | > 25 | 4.66 | > 14.5 | 0.769 | 8.66 | > 25 | 3.56 | 2.57 | > 25 | 5.22
Cc1ccc(C)c(NC(=O)CC/C(=N\NC(=O)c2c(O)ccc3ccccc23)C(C)C(=O)c2ccc(O)cc2)c1 (configuration not stated) | > 100 | > 100 | > 100 | > 100 | 83.8 | > 100 | 41.4 | > 100 | > 100 | > 100 |  |  |  |  |  |  |  |  | 
COc1cc(C2C(Cl)C(=O)N2NC(=O)c2ccc(N)cc2)ccc1O (configuration not stated) | 39.4 | > 100 | 78.9 | > 100 |  | 52.8 | > 100 | > 100 | > 100 | 35.2 |  |  |  |  |  |  |  |  | 
COc1c(Cl)cc(NC(=S)C#N)cc1Cl | 88.2 | > 100 | 58.4 | > 100 | 60.1 | 48.8 | 64.4 | 68.2 | > 71.4 | > 100 |  |  |  |  |  |  |  |  | 
Cc1ccc(Nc2nc(C)c(C(/C=C/c3ccc(/C=C/C(=N/NC(=O)C[n+]4ccccc4)c4sc(Nc5ccc(C)cc5[N+](=O)[O-])nc4C)cc3)=N\NC(=O)C[n+]3ccccc3)s2)c([N+](=O)[O-])c1 | > 100 | > 100 | > 100 | > 100 | 68 |  | > 100 | > 100 | > 100 | > 100 |  |  |  |  |  |  |  |  | 
CC1=C2C(=CC(C)(C)C2O)C(=O)C(C)(O)C12CC2 (configuration not stated) | 0.0388 | 0.277 | 0.0315 | 0.0149 | 0.179 | 0.0526 | 0.0602 | 0.0412 | 0.0865 | 0.0752 |  |  |  |  |  |  |  |  | 
COc1cc(C(=O)NC2CCN(C)CC2)c(F)cc1Nc1ncc2c(n1)N(C1CCCC1)CC(F)(F)C(=O)N2C | 11.7 | 2.31 | 3.71 | < 0.0197 |  | 0.391 | 5.89 | 12.4 | 16.2 | 11.5 | 0.0435 | < 0.0184 | < 0.0243 | < 0.01 | 0.0326 | 0.0235 | < 0.0168 | < 0.0209 | < 0.01
Cc1cccc(C(C)C)c1NC(=O)CC1C(=O)Nc2ccccc2S1(=O)=O (configuration not stated) | 39.5 | 39.3 | > 50 | 28.4 | 70.8 | 30.7 | > 64.2 | 35.2 | > 56 | 30.4 |  |  |  |  |  |  |  |  | 
COc1ccc2ccccc2c1C1OC(=O)c2ccccc21 (configuration not stated) | > 100 | > 100 | > 100 | > 100 | > 100 | > 100 | > 100 |  |  | > 100 |  |  |  |  |  |  |  |  | 
CC(C)(O)CC(=O)NCCn1ccc2ncnc(Nc3ccc(Oc4cccc(C(F)(F)F)c4)c(Cl)c3)c21 | > 10 | > 10 | > 10 | > 10 |  | > 10 | > 10 | > 10 | > 10 | > 10 | 4.01 | 3.05 | 1.8 | 2.88 | 1.63 | 4.17 | 3.37 | 4.43 | 3.32
CCOC(=O)C(=Cc1cccnc1C)C(=O)OCC | 20.8 | 51.3 | 18.9 | > 100 | 21.7 | 24.5 | 24.2 | 35.8 | 36.5 | 17.5 |  |  |  |  |  |  |  |  | 
Cc1ccccc1NC(=O)C(=O)CC(=O)c1c(C)n([O-])c2ccccc2[n+]1=O | > 100 | > 100 | > 100 |  | > 100 |  | > 100 | > 100 | > 100 | > 100 |  |  |  |  |  |  |  |  | 
COc1ccc(OC)c(NC(=O)CCC/C(CC(=O)c2ccc(O)c(OC)c2)=N\Nc2ccc([N+](=O)[O-])cc2)c1 | > 100 | > 100 | > 100 | > 100 | > 100 | 85.6 | > 100 | > 100 |  | > 100 |  |  |  |  |  |  |  |  | 
COc1ccc(/C=N/N=C(\N)NO)c(OC)c1 | > 100 | > 100 | > 100 |  | > 100 | > 100 |  |  | > 100 | > 100 |  |  |  |  |  |  |  |  | 
Clc1nc(Cl)c2ncn(C/C=C/COc3cccc(OC/C=C/Cn4cnc5c(Cl)nc(Cl)nc54)c3)c2n1 | > 100 | > 100 | > 100 | 27.8 |  | > 100 | > 100 | > 100 | > 100 | > 100 | > 100 | > 100 | > 100 | 14.7 | > 100 | 32.7 | > 100 | > 100 | > 100
